Test results taken from patent US10040791B2, “Isoxazole derivative as mutant isocitrate dehydrogenase 1 inhibitor” (Daiichi Sankyo Company, Limited, priority 2014, dated 2018).

Legend:
[1] = molecular target: IDH1R132C (Homo sapiens (Human), UniProt O75874, R132C); test: Inhibitory activity against IDH1R132C enzyme (NADPH detection, WST-8); format: biochemical; settings: 10 nM, residual NADPH detected with WST-8, read-out: Test Example 1 IDH1 R132C IC50
[2] = system: HT-1080 cells expressing IDH1R132C; test: 2-HG production inhibitory activity using HT1080 cell; format: cell-based, human; settings: Homo sapiens, HT-1080; 2-HG production, HT1080 cells; read-out: Test Example 3 IC50
Method: Then, 100 μL of growth medium B was added to each well, further 25 μL of a solution of each compound diluted to a predetermined concentration with growth medium B was added to each well, and the cells were incubated at 37° C. for 2 days under 5% CO2. […] Then, 150 μL of ultrapure water was further added to each well, and the mixture was stirred by pipetting and stored at −20° C.
The preserved solutions were thawed at room temperature.

[3] = system: HT1080 xenografted mice (IDH1R132C); test: 2-HG production inhibitory activity using HT1080 xenografted mice; format: in vivo, mouse; settings: Mus musculus, HT-1080, po, 6 h, 2-HG production, HT1080 xenografted mice; read-out: Test Example 5 Ratio (%)
In short: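 Mice bearing HT1080 tumors received 75 mg/kg compound by oral gavage twice a day, three doses in total, at 10 mL/kg; vehicle-dosed mice were negative controls. Tumors were collected 6 h after the final dose, frozen, homogenized in methanol and centrifuged, and 2-HG was measured in the extracts.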

IDH1R132C, sequence (O75874 whole entry R132C): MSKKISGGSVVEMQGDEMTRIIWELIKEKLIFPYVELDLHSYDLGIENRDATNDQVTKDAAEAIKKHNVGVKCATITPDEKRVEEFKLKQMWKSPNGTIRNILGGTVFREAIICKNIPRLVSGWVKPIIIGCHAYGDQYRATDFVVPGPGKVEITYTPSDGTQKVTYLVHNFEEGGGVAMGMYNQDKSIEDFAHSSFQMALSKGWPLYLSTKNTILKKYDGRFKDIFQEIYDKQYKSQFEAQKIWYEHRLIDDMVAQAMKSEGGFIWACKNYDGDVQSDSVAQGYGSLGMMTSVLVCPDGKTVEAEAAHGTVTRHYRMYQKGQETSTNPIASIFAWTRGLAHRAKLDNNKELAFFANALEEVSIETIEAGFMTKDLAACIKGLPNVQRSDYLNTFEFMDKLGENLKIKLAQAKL

Compound | IC50 [1] | IC50 [2] | response vs control in vivo at 75 mg/kg [3]
C=CC(=O)N1CCC(c2onc(-c3c(C)cc(Cl)cc3C)c2C(=O)n2ccc3c(/C=C/C(=O)O)cccc32)CC1 [Example 110] | 316 nM | 48 nM | 52%
C=CC(=O)N1CCC(c2onc(-c3c(Cl)cc(F)cc3Cl)c2C(=O)n2cc(C)c3c(/C=C/C(=O)O)cccc32)CC1 [Example 112] | 115 nM | 12 nM | 15%
C=CC(=O)N1CCC(C)(c2onc(-c3c(Cl)cc(Cl)cc3Cl)c2C(=O)n2cc(C)c3c(/C=C/C(=O)O)cccc32)CC1 [Example 113] | 104 nM | 2 nM | 13%
C=CC(=O)N1CCC(c2onc(-c3c(C)cc(C)cc3C)c2C(=O)n2cc(C)c3c(/C=C/C(=O)O)cccc32)CC1 [Example 114] | 81 nM | 3 nM | 12%
C=CC(=O)N1CCC(c2onc(-c3c(Cl)cc(Cl)cc3Cl)c2C(=O)n2cc(C)c3c(CCC(=O)O)cccc32)CC1 [Example 115] | 301 nM | 32 nM | 12%
C=CC(=O)N1CCC(c2onc(-c3c(Cl)cc(Cl)cc3Cl)c2C(=O)n2ccc3c(/C=C(\C)C(=O)O)cccc32)CC1 [Example 116] | 471 nM | 42 nM | 57%
C=CC(=O)N1CCC(OC)(c2onc(-c3c(Cl)cc(Cl)cc3Cl)c2C(=O)n2cc(C)c3c(/C=C/C(=O)O)cccc32)CC1 [Example 117] | 117 nM | 2 nM | 10%
C=CC(=O)N1CCC(c2onc(-c3c(Cl)cc(Cl)cc3Cl)c2C(=O)n2ncc3c(/C=C/C(=O)O)cccc32)CC1 [Example 118] | 625 nM | 97 nM | 87%
C/C=C/C(=O)N1CCC(c2onc(-c3c(Cl)cc(Cl)cc3Cl)c2C(=O)n2cc(C)c3c(/C=C/C(=O)O)cccc32)CC1 [Example 119] | 190 nM | 30 nM | 12%
C=CC(=O)N1CCC(COC)(c2onc(-c3c(Cl)cc(Cl)cc3Cl)c2C(=O)n2ccc3c(/C=C/C(=O)O)cccc32)CC1 [Example 120] | 357 nM | 51 nM | 31%
C=CC(=O)N1CCC(c2onc(-c3cc(F)c(Cl)cc3Cl)c2C(=O)n2cc(C)c3c(/C=C/C(=O)O)cccc32)CC1 [Example 121] | 110 nM | 8 nM | 8%
C=CC(=O)N1CCC(c2onc(-c3c(C)cc(Cl)cc3C)c2C(=O)n2cc(C)c3c(/C=C/C(=O)O)cccc32)CC1 [Example 122] | 94 nM | 6 nM | 29%
C=CC(=O)N1CCC(c2onc(-c3c(Cl)cc(Cl)cc3Cl)c2C(=O)n2cc3c4c(cccc42)C(CC(=O)O)CC3)CC1 (stereo not drawn) [Example 125] | 454 nM | 78 nM | 72%
C=CC(=O)N1CCC(c2onc(-c3cc(F)c(Cl)cc3Cl)c2C(=O)n2cc3c4c(cccc42)/C(=C/C(=O)O)CC3)CC1 [Example 128] | 91 nM | 3 nM | 1%
C=CC(=O)N1CCC(c2onc(-c3ccc(Cl)c(F)c3Cl)c2C(=O)n2cc3c4c(cccc42)/C(=C/C(=O)O)CC3)CC1 [Example 130, (2E)-[1-{[5-(1-Acryloylpiperidin-4-yl)-3-(2,4-dichloro-3-fluorophenyl)-1,2-oxazol-4-yl]carbonyl}-3,4-dihydrobenzo[cd]indol-5(1H)-ylidene]ethanoic acid] | 143 nM | 14 nM | 5%
C=CC(=O)N1CCC(c2onc(-c3ccc(Cl)cc3Cl)c2C(=O)n2cc3c4c(cccc42)/C(=C/C(=O)O)CC3)CC1 [Example 131, (2E)-[1-{[5-(1-Acryloylpiperidin-4-yl)-3-(2,4-dichlorophenyl)-1,2-oxazol-4-yl]carbonyl}-3,4-dihydrobenzo[cd]indol-5(1H)-ylidene]ethanoic acid] | 133 nM | 4 nM | 3%
C=CC(=O)N1CCN(c2onc(-c3c(Cl)cccc3Cl)c2C(=O)n2ccc3c(/C=C/C(=O)O)cccc32)[C@H](C)C1 [Example 141, (2E)-3-[1-({5-[(2R)-4-Acryloyl-2-methylpiperazin-1-yl]-3-(2,6-dichlorophenyl)-1,2-oxazol-4-yl}carbonyl)-1H-indol-4-yl]prop-2-enoic acid] | 137 nM | 190 nM | 36%
C=CC(=O)N1CCN(c2onc(-c3c(Cl)cccc3Cl)c2C(=O)n2ccc3c(/C=C/C(=O)O)cccc32)CC1 [Example 142, (2E)-3-(1-{[5-(4-Acryloylpiperazin-1-yl)-3-(2,6-dichlorophenyl)-1,2-oxazol-4-yl]carbonyl}-1H-indol-4-yl)prop-2-enoic acid] | 123 nM | 134 nM | 56%
C=CC(=O)N1CCN(c2onc(-c3c(Cl)cc(Cl)cc3Cl)c2C(=O)n2ccc3c(/C=C/C(=O)O)cccc32)CC1 [Example 143, (2E)-3-(1-{[5-(4-Acryloylpiperazin-1-yl)-3-(2,4,6-trichlorophenyl)-1,2-oxazol-4-yl]carbonyl}-1H-indol-4-yl)prop-2-enoic acid] | 150 nM | 148 nM | 60%
C=CC(=O)N1C[C@@H](C)N(c2onc(-c3c(Cl)cccc3Cl)c2C(=O)n2ccc3c(/C=C/C(=O)O)cccc32)[C@@H](C)C1 [Example 144, (2E)-3-(1-{[5-(4-Acryloyl-cis-2,6-dimethylpiperazin-1-yl)-3-(2,6-dichlorophenyl)-1,2-oxazol-4-yl]carbonyl}-1H-indol-4-yl)prop-2-enoic acid] | 151 nM | 107 nM | 34%
C=CC(=O)N1CCN(c2onc(-c3c(Cl)cccc3Cl)c2C(=O)n2ccc3c(/C=C/C(=O)O)cccc32)[C@@H](C)C1 [Example 145, (2E)-3-[1-({5-[(2S)-4-Acryloyl-2-methylpiperazin-1-yl]-3-(2,6-dichlorophenyl)-1,2-oxazol-4-yl}carbonyl)-1H-indol-4-yl]prop-2-enoic acid] | 214 nM | 820 nM | 56%
C=CC(=O)N1CCN(c2onc(-c3c(Cl)cccc3Cl)c2C(=O)n2ccc3c(/C=C/C(=O)O)cccc32)C2(CC2)C1 [Example 147, (2E)-3-(1-{[5-[7-Acryloyl-4,7-diazaspiro[2.5]oct-4-yl]-3-(2,6-dichlorophenyl)-1,2-oxazol-4-yl]carbonyl}-1H-indol-4-yl)prop-2-enoic acid] | 78 nM | 219 nM | 18%
C=CC(=O)N1CCN(c2onc(-c3c(Cl)cc(Cl)cc3Cl)c2C(=O)n2ccc3c(/C=C/C(=O)O)cccc32)C[C@H]1C [Example 148, (2E)-3-[1-({5-[(3R)-4-Acryloyl-3-methylpiperazin-1-yl]3-(2,4,6-trichlorophenyl)-1,2-oxazol-4-yl}carbonyl)-1H-indol-4-yl]prop-2-enoic acid] | 225 nM | 114 nM | 50%
C=CS(=O)(=O)N1CCN(c2onc(-c3c(Cl)cccc3Cl)c2C(=O)n2ccc3c(/C=C/C(=O)O)cccc32)CC1 [Example 149, (2E)-3-[1-({3-(2,6-Dichlorophenyl)-5-[4-(ethenylsulfonyl)piperazin-1-yl]-1,2-oxazol-4-yl}carbonyl)-1H-indol-4-yl]prop-2-enoic acid] | 132 nM | 278 nM | 96%
C=CC(=O)N1CCN(c2onc(-c3c(Cl)cc(Cl)cc3Cl)c2C(=O)n2ccc3c(/C=C/C(=O)O)cccc32)C2(CC2)C1 [Example 150, (2E)-3-(1-{[5-[7-Acryloyl-4,7-diazaspiro[2.5]oct-4-yl]-3-(2,4,6-trichlorophenyl)-1,2-oxazol-4-yl]carbonyl}-1H-indol-4-yl)prop-2-enoic acid] | 98 nM | 41 nM | 18%
C=CC(=O)N1C[C@@H](C)N(c2onc(-c3c(Cl)cc(Cl)cc3Cl)c2C(=O)n2ccc3c(/C=C/C(=O)O)cccc32)[C@@H](C)C1 [Example 151, (2E)-3-(1-{[5-(4-Acryloyl-cis-2,6-dimethylpiperazin-1-yl)-3-(2,4,6-trichlorophenyl)-1,2-oxazol-4-yl]carbonyl}-1H-indol-4-yl)prop-2-enoic acid] | 168 nM | 41 nM | 60%
C=CC(=O)N1C[C@@H](C)N(c2onc(-c3c(Cl)cc(Cl)cc3Cl)c2C(=O)n2ccc3c(/C=C/C(=O)O)cccc32)C[C@H]1C [Example 152, (2E)-3-[1-({5-[(2R,5R)-4-Acryloyl-2,5-dimethylpiperazin-1-yl]-3-(2,4,6-trichlorophenyl)-1,2-oxazol-4-yl}carbonyl)-1H-indol-4-yl]prop-2-enoic acid] | 222 nM | 276 nM | 87%
C=CC(=O)N1CCN(c2onc(-c3c(Cl)cccc3Cl)c2C(=O)n2ccc3c(/C=C/C(=O)O)cccc32)[C@H](C2CC2)C1 [Example 154, (2E)-3-[1-({5-[(2R)-4-Acryloyl-2-cyclopropylpiperazin-1-yl]-3-(2,6-dichlorophenyl)-1,2-oxazol-4-yl}carbonyl)-1H-indol-4-yl]prop-2-enoic acid] | 235 nM | 294 nM | 45%
